We go through three compounds from patent US20070281925A1, “USE OF SERTINDOLE FOR THE PREVENTIVE TREATMENT OF SUICIDAL BEHAVIOUR” (H. Lundbeck A/S, priority 2006, published 2007).

In data set [1] the test system is patient population of clinical trials of atypical antipsychotics. The following applies: between sertindole, olanzapine and risperidone; cited from earlier work.
For data set [2], the system named is patients with schizophrenia. As to the kind of experiment: Sertindole Cohort Prospective (SCoP) study: fatal or non-fatal suicide attempts, sertindole vs risperidone. The data set is classed as in vivo, human. The following applies: for Committed or attempted suicide (rate/100 PYE): WRT period plus 30 days; for Hazard Ratio SERT as compared to RISP, committing or attempting suicide: Cox proportional hazards model adjusting for age, gender, history of suicide attempt, duration of schizophrenia; for Hazard ratio SERT/RISP, committed or attempted suicide: log-rank test, WRT plus 30 days. The source says: The Sertindole Cohort Prospective (SCoP) study was designed as a multi-national, multi-centre, prospective, randomized, open-label, two parallel-group, active-controlled study in human subjects with schizophrenia. The objective of the study is to compare the safety of sertindole with the safety of another standard antipsychotic drug (in this case risperidone) under normal conditions of use. In addition, the study collects information on fatal or non-fatal suicide attempts. The study was initiated in 2002 and is still ongoing.
To ensure that the study population is representative of patients with schizophrenia, only a limited number of selection criteria are imposed. In particular, patients are required to fulfil the criteria specified in the SmPCs (Core Summary of Product Characteristics) for both sertindole and risperidone; they are not to have received either sertindole or risperidone as their treatment immediately before entering the study, and they require treatment with but a single anti-schizophrenia drug product.
The Sertindole Cohort Prospective (SCoP) study is a multinational, multi-centre, prospective, randomized, open-label, two parallel-group, active-controlled study in patients with schizophrenia. The objective of the study is to compare the safety of sertindole with the safety of another standard antipsychotic drug (in this case risperidone) under normal conditions of use. In addition, the study collects information on fatal or non-fatal suicide attempts. The study was initiated in 2002 and is still ongoing.
The data in the study are reported for different periods. The Only-Randomized-Treatment-Period (ORT) covers the time the patient is receiving antipsychotic monotherapy with the randomized trial medication. However, patients can also be treated in combination with another antipsychotic if this is clinically necessary. When the patient receives an additional antipsychotic, the patient is censored and the data are reported for the Whole-Randomized-Treatment period (WRT). The primary period for reporting is the so-called Whole-Randomized-Treatment+30 period (WRT+30), which covers the time during which the patient receives randomized treatment plus 30 days after treatment discontinuation. Finally, the period during which the patient is followed even after the treatment has been stopped is called the Whole-Follow-up-Period (WFP).
To ensure that the study population is representative of patients with schizophrenia, only a limited number of selection criteria are imposed. In particular, patients are required to fulfill the criteria specified in the SmPCs for both sertindole and risperidone; they are not to have received either sertindole or risperidone as their treatment immediately before entering the study, and they require treatment with but a single antipsychotic drug.
Throughout the treatment period patients are dosed according to the treatment recommendations in their respective SmPCs. […]
Regarding attempted suicide, the analysis comprised only those events for which the investigators confirmed that the patients actually tried to commit suicide. Events such as intentional overdose and intentional self-injury were clarified by the investigators and were not included in the analysis unless the investigators confirmed that they were real suicide attempts. The included events were coded as ‘suicide attempt’ in the database.
The above definition of attempted suicide has the advantage of making it possible combine this event with completed suicide and to analyze the time until either event occurs. This can be done since all patients are randomised to start new treatment with either sertindole or risperidone.
All events occurring in the Whole Randomised Treatment (WRT) period plus 30 days were considered for analysis, up until the data cut-off. The WRT period is the period from start to stop of randomised treatment. The null hypothesis of equality of hazards between treatment groups was tested using the log-rank test. […]

In data set [3] the test system is A10 neurons (the mesolimbic and mesocortical pathways). The following applies: cited from earlier work.
In data set [4] the test system is α2-adrenergic receptors. To be noted: cited from earlier work.
The subject of data set [5] is muscarinic receptors. To be noted: cited from earlier work.
The target in data set [6] is dopamine D2 receptors (Homo sapiens, UniProt P14416). The following applies: cited from earlier work.
In data set [7] the test system is α1-adrenergic receptors. The following applies: cited from earlier work.
Data set [8] relates to A9 dopamine neurons (the nigrostriatal pathway). To be noted: cited from earlier work.
The subject of data set [9] is serotonin 5-HT2 receptors. To be noted: cited from earlier work.
In data set [10] the test system is histaminergic receptors. To be noted: cited from earlier work.
Data set [11] has as its system patients with schizophrenia. As to the kind of experiment: Twelve-month open-label study of sertindole: time to sustained response. The data set is classed as in vivo, human. To be noted: 4-24 mg once daily for up to one year; 358 patients. An excerpt:
These findings are further corroborated by an exploratory analysis of clinical data obtained from a twelve-month open-label study ([…] et al., “Identification of Potential Predictors of Sertindole Response in Patients with Schizophrenia”, to be published). In line with the emerging consensus criteria for response to antipsychotic treatment in schizophrenia ([…] et al., Am J Psychiatry 162:441-449, March 2005), the objective of this exploratory analysis is to identify potential predictors of response to sertindole in patients with schizophrenia. The study assessed the safety and efficacy of sertindole doses (4-24 mg) administered once daily for up to one year in US patients with schizophrenia.

The conditions of data set [12]: compared with haloperidol, fluphenazine and chlorpromazine; cited from earlier work.

dopamine D2 receptors, sequence (P14416 whole entry): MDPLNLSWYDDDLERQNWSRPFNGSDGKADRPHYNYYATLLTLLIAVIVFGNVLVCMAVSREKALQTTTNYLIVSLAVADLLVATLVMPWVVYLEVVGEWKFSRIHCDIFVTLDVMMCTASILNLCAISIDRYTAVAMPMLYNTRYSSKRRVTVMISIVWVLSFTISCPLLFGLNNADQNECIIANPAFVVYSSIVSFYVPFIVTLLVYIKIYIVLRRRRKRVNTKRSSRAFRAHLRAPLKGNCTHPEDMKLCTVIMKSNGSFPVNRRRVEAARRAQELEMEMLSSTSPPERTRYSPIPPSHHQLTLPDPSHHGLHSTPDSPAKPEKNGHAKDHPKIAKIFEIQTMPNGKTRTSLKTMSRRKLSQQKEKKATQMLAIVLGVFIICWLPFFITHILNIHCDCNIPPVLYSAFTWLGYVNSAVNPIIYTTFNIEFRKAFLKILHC

Consider `Cc1cc2c(s1)Nc1ccccc1N=C2N1CCN(C)CC1` [olanzapine], for which the “Short-term (450 days) hazard functions (mortality)” value (“Short-term” below) in data set [1] is recorded as “no obvious difference”.

With `Cc1nc2n(c(=O)c1CCN1CCC(c3noc4cc(F)ccc34)CC1)CCCC2` [risperidone], the “Short-term” value in [1] was “no obvious difference”. Besides, the “Event rate in risperidone group relative to sertindole group (times higher)” value was “approximately 1.7 times” in data set [2] (Cox proportional hazards model, data cut-off 11.1 2007); roughly 1.5 times in [2] (data cut-off 11.1 2007, unadjusted); roughly 1.5 times in data set [2] (data up until 11 Jan. 2006). For the same compound, the “Committed or attempted suicide (rate/100 PYE)” value in data set [2] (as of Nov. 1, 2006) was found to be 1.15 rate/100 PYE; in data set [2] (as of Nov. 1, 2007) it was 0.92 rate/100 PYE.

As to `O=C1NCCN1CCN1CCC(c2cn(-c3ccc(F)cc3)c3ccc(Cl)cc23)CC1` [sertindole], the “Activity in A10 neurons” value in [3] is given as “retains activity”. Further, the “Binding to α2-adrenergic receptors” value in data set [4] is recorded as “limited binding”. In addition, the “Binding to muscarinic receptors” value in data set [5] is recorded as “limited binding”. For the same compound, the “Affinity for dopamine D2 receptors” value in data set [6] is reported as “high affinity”. Besides, the “Short-term” value in data set [1] was “no obvious difference”. Besides, the “Affinity for α1-adrenergic receptors” value in data set [7] was “high affinity”. For the same compound, the “Depolarization inactivation in A9 dopamine neurons” value in data set [8] is “does not induce depolarization inactivation”. Besides, in data set [9], the “Affinity for serotonin 5-HT2 receptors” value is reported as “high affinity”. In addition, the “Binding to histaminergic receptors” value in [10] is on record as “limited binding”. For the same compound, in data set [11], the “Patients achieving sustained response (CGI-S<=3 and CGI-I<=2, sustained at least 8 weeks)” value is 125 patients. Besides, the “Hazard Ratio SERT as compared to RISP, committing or attempting suicide” value in data set [2] (as of Nov. 1, 2007) is “approximately 0.6”; in data set [2] (as of Nov. 1, 2007, listed as SERT), 0.614. In addition, the “Committed or attempted suicide (rate/100 PYE)” value in data set [2] (as of Nov. 1, 2006) turned out to be 0.85 rate/100 PYE; in data set [2] (as of Nov. 1, 2007) it was 0.62 rate/100 PYE. The “Hazard ratio SERT/RISP, committed or attempted suicide” value in data set [2] (data cut-off 11.1 2007) was “approximately 0.7”; in [2] (data cut-off 11.1 2007, listed as SERT), 0.69; in data set [2] (data up until 11 Jan. 2006), “approximately 0.7”; in data set [2] (data up until 11 Jan. 2006, listed as SERT), 0.72. Moreover, in data set [2] (schizophrenic patients on maintenance dose sertindole therapy), the “Incidence of suicide attempts (both fatal and non-fatal) in comparison with risperidone” value is “reduced significantly”. Moreover, the Adverse effects entry in [12] is “fewer adverse effects”.
